Test results taken from patent US9326988B2, “Treatment and/or prevention of parkinson's disease dementia with ceftriaxone” (CHUNG SHAN MEDICAL UNIVERSITY, priority 2012, dated 2016).

Tests used:
normal rats = assay: Object recognition test in sham-operated rats; assay type: in vivo, male Wistar rats; settings: determined 14th day (FIG. 4)
Method: The rats in the sham-operated groups were generally subjected to the same surgical procedures for the rats in the pathological control group, the preventive groups, and the treatment groups, except that an equal volume of saline was infused bilaterally into the SNc of the mesencephalon of rats in the shame-operated groups.
5 days before the MPTP-HCl injection, ceftriaxone (Sigma) was administered to the rats in the preventive groups 1,2 via intraperitoneal injection respectively at a daily dose of 100 mg/kg and at a daily dose of 200 mg/kg until the end of the 14th day after the MPTP-HCl injection. After the MPTP-HCl injection, ceftriaxone was administered to the rats in the treatment group 1 and the sham-operated groups 2,3 via intraperitoneal injection respectively at a daily dose of 200 mg/kg, at a daily dose of 100 mg/kg, and at a daily dose of 200 mg/kg, and saline was administered to the rats in the pathological control group and the sham-operated group 1 via intraperitoneal injection at a daily dose of 1 mL/kg. […]
The object recognition test is described as follows. […] By virtue of the video camera, the time spent by the respective rat exploring an object (i.e. the object A1, A2, A3, or B) during a trial (i.e. the first, second, third, or fourth trial) was measured. […]

rats with PDD = assay: T-maze test (working memory) in MPTP-HCl-induced PDD rats; assay type: in vivo, male Wistar rats
Method: 1-methyl-4-phenyl-1,2,3,6-tetrahydropyridine hydrochloride (MPTP-HCl) was used to induce PDD in the rats, and the therapeutic effect of ceftriaxone on PDD was evaluated via behavioral tests and histopathological assessment of the brain for the rats. The experiments of this example were conducted substantially according to the method as described in Ho Y. J. et al. (2011), Behav. Brain Res., 219:280-290.
The rats in the pathological control group, the preventive groups, and the treatment groups were anesthetized using Zoletil (Virbac, Carros, France; 20 mg/kg, intraperitoneal injection). Afterward, 0.5 M MPTP-HCl (in saline) was slowly infused bilaterally into the substantia nigra pars compacta (SNc) of the mesencephalon of each rat in the pathological control group, the preventive groups, and the treatment groups (0.21 mg/side) so as to induce the same to develop PDD.
5 days before the MPTP-HCl injection, ceftriaxone (Sigma) was administered to the rats in the preventive groups 1,2 via […] day after the MPTP-HCl injection. After the MPTP-HCl injection, […] 2,3 via intraperitoneal injection respectively at a daily dose of 200 mg/kg, at a daily dose of 100 mg/kg, and at a daily dose of 200 mg/kg, and saline was administered to the rats in the pathological control group and the sham-operated group 1 via intraperitoneal injection at a daily dose of 1 mL/kg. […] The rats in the pathological control group, the treatment groups 1,2,3, and the sham-operated groups 1,2,3 were subjected to the once-a-day administration until the end of the 14th day after the MPTP-HCl injection.
Starting on the 8th day after the MPTP-HCl injection, the rats in each group were subjected to the T-maze test as described in section C of this example. Starting on the 12th day after the MPTP-HCl injection, the rats in each group were subjected to the object recognition test as described in section D of this example. On the 15th day after the MPTP-HCl injection, the rats in the treatment group 1, the sham-operated group 1, and the pathological control group were subjected to the histopathological analysis as described in section E of this example.
In order to investigate the effect of ceftriaxone on the working memory of the rats with PDD, on the 8th day after the MPTP-HCl injection, 11 rats, 32 rats, and 36 rats were randomly selected respectively from the treatment group 1, the sham-operated group 1, and the pathological control group, and the aforesaid randomly selected rats and each of the rats in the rest of the groups were subjected to a T-maze test. The T-maze test lasted a total of three days, and was conducted substantially according to the following methods: • (1) One day before the start of the T-maze test, the rats are subjected to 23 hours of fasting. Furthermore, on each of three days for the training session, after all of trials were finished, the rats were fed for an hour. • (2) The training session—the 1st and 2nd days of the T-maze test: • The respective rat is subjected to a total of 9 trials. In each of the trials, one forced run and one choice run were sequentially conducted. The time interval between the forced run and the choice run was 30 seconds. The respective rat was placed at the start end 11 of the T-maze to begin either the forced run or the choice run. When the forced run was conducted, the sliding door 22 of one of the two choice arms 2 was closed, and a food serving as a reward was placed at the terminal end 21 of the other one of the two choice arms 2.

CO/N=C(\C(=O)N[C@@H]1C(=O)N2C(C(=O)O)=C(CSc3nc(=O)c(=O)[nH]n3C)CS[C@H]12)c1csc(N)n1 [ceftriaxone, Ceftriaxone]
there is statistical significance: percentage of exploration time spent on object B in the fourth trial versus object A3 in the third trial (normal rats; sham-operated group 2: 100 mg/kg daily i.p.) | percentage of exploration time spent on object B in the fourth trial versus object A3 in the third trial (normal rats; sham-operated group 3: 200 mg/kg daily i.p.)
higher: correct response rate compared to the pathological control group (rats with PDD; Example 1 preventive group 1: 100 mg/kg daily i.p. from 5 days before MPTP-HCl to 14th day after, determined 10th day (FIG. 3)) | correct response rate compared to the pathological control group (rats with PDD; Example 1 preventive group 2: 200 mg/kg daily i.p. from 5 days before MPTP-HCl to 14th day after, determined 10th day (FIG. 3)) | correct response rate compared to the pathological control group (rats with PDD; Example 1 treatment group 1: 200 mg/kg daily i.p. after MPTP-HCl injection to 14th day, determined 10th day, difference statistically significant (FIG. 3)) | correct response rate compared to the pathological control group (rats with PDD; Example 1 treatment group 2: 100 mg/kg daily i.p. starting 3rd day after MPTP-HCl to 14th day, determined 10th day, difference statistically significant (FIG. 3)) | correct response rate compared to the pathological control group (rats with PDD; Example 1 treatment group 3: 200 mg/kg daily i.p. starting 3rd day after MPTP-HCl to 14th day, determined 10th day, difference statistically significant (FIG. 3))
significantly higher: correct response rate compared to the pathological control group (rats with PDD; Example 2 treatment group 1: 10 mg/kg daily i.p. after MPTP-HCl injection to 14th day, determined 10th day (FIG. 7)) | correct response rate compared to the pathological control group (rats with PDD; Example 2 treatment group 2: 50 mg/kg daily i.p. after MPTP-HCl injection to 14th day, determined 10th day (FIG. 7))
